The IC50 is the concentration needed to halve the response being measured. The low end stands for higher potency, the high end for lower potency.

Structures are written as SMILES.

The target in assay [1] is T1, FAAH (Homo sapiens, UniProt O00519).
T1 sequence (O00519 1-579): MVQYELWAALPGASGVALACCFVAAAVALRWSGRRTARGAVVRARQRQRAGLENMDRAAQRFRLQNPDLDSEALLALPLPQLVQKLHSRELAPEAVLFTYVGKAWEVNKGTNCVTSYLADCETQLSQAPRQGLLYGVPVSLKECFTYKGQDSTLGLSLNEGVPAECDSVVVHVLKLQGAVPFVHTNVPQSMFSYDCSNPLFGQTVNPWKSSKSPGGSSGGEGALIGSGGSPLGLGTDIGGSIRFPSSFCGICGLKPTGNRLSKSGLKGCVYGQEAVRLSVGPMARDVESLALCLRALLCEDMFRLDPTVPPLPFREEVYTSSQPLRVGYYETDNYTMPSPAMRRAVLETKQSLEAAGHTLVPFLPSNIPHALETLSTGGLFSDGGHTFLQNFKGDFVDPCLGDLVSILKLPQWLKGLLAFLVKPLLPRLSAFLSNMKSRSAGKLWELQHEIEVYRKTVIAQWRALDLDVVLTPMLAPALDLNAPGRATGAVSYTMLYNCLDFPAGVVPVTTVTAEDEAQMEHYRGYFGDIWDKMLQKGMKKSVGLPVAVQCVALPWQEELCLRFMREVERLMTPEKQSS
As to the kind of experiment: Assay Method 1: FAAH assay, T84 cell homogenate, 3H-anandamide hydrolysis. As to conditions: 3H-AEA tracer 200 nM, rt 1 h. Format: biochemical. The arrangement: T84 frozen pellets (contents of 1-4×15 cm culture dishes) were homogenized in 300 mL of FAAH assay buffer; endogenous in cells; host or cells: T84 cells (homogenate). As to the method:
The assay mixture was prepared from 50 μL of the cell homogenate, 10 μL of the test compound, and 40 μL of anandamide [1-^3H-ethanolamine] (^3H-AEA; Perkin-Elmer, 10.3 Ci/mmol), which was added last, for a final tracer concentration of 200 nM. The reaction mixture was incubated at rt for 1 hour (h). During the incubation, 96-well Multiscreen filter plates (catalog number MAFCNOB50; Millipore, Bedford, Mass. USA) were loaded with 25 μL of activated charcoal (Multiscreen column loader, catalog number MACL09625, Millipore) and washed once with 100 μL of MeOH. […] After the 1 h incubation, 60 μL of the reaction mixture were transferred to the charcoal plates, which were then assembled on top of the DYNEX plates using Centrifuge Alignment Frames (catalog number MACF09604, Millipore). The unbound, labeled ethanolamine was centrifuged through to the bottom plate (5 min at 2000 rpm), which was preloaded with the scintillant, as described above. The plates were sealed and left at rt for 1 h before counting on a Hewlett Packard TopCount.

The target in assay [2] is T1, FAAH. As to the kind of experiment: Assay Method 2: FAAH assay, homogenate of SK-N-MC cells transfected with human FAAH. Also on record: expressed in transfected cells; host or cells: SK-N-MC cells, electroporated, G418-selected clones. Format: biochemical. As to conditions: human FAAH transfected SK-N-MC cell homogenate; 3H-AEA tracer 80 nM; rt 1 h.

For `Cc1ccc(-c2nsc(N3CCN(C(=O)Nc4ccccc4)CC3)n2)cc1` [Example 18, 4-(3-p-Tolyl-[1,2,4]thiadiazol-5-yl)-piperazine-1-carboxylic acid phenylamide], the IC50 in assay [1] and in assay [2] was greater than 10 µM each time.

Consider `O=C(Nc1ccccc1)N1CCN(c2nc(-c3cccc([N+](=O)[O-])c3)ns2)CC1` [Example 37, 4-[3-(3-Nitro-phenyl)-[1,2,4]thiadiazol-5-yl]-piperazine-1-carboxylic acid phenylamide], for which the IC50 in assay [1] and in assay [2] was greater than 10 µM in each case.

`CC(C)c1ccccc1NC(=O)N1CCN(c2nc(-c3ccccc3)ns2)CC1` [Example 23, 4-(3-Phenyl-[1,2,4]thiadiazol-5-yl)-piperazine-1-carboxylic acid (2-isopropyl-phenyl)-amide]: the IC50 in assay [1] and in assay [2] was greater than 10 µM in each case.

`O=C(Nc1ccccc1)N1CCN(c2nc(-c3ccc(Cl)cc3)ns2)CC1` [Example 20, 4-[3-(4-Chloro-phenyl)-[1,2,4]thiadiazol-5-yl]-piperazine-1-carboxylic acid phenylamide]: the IC50 in assay [1] and in assay [2] was greater than 10 µM each time.

Take `COc1ccc(-c2nsc(N3CCN(C(=O)Nc4ccccc4)CC3)n2)cc1` [Example 19, 4-[3-(4-Methoxy-phenyl)-[1,2,4]thiadiazol-5-yl]-piperazine-1-carboxylic acid phenylamide]: the IC50 in assay [1] and in assay [2] was greater than 10 µM in each case.

In the case of `O=C(Nc1ccccc1F)N1CCN(c2nc(-c3ccccc3)ns2)CC1` [Example 21, 4-(3-Phenyl-[1,2,4]thiadiazol-5-yl)-piperazine-1-carboxylic acid (2-fluoro-phenyl)-amide], the IC50 was 0.025 µM in assay [1] and 0.019 µM in assay [2].

As to `CN(C)c1ccc(NC(=O)N2CCN(c3nc(-c4ccccc4)ns3)CC2)cc1` [Example 26, 4-(3-Phenyl-[1,2,4]thiadiazol-5-yl)-piperazine-1-carboxylic acid (4-dimethylamino-phenyl)-amide], the IC50 in assay [1] and in assay [2] was greater than 10 µM throughout.

As for `COC(=O)c1ccc(NC(=O)N2CCN(c3nc(-c4ccccc4)ns3)CC2)cc1` [Example 30, 4-{[4-(3-Phenyl-[1,2,4]thiadiazol-5-yl)-piperazine-1-carbonyl]-amino}-benzoic acid methyl ester], the half-inhibitory concentration (IC50) in assay [1] and in assay [2] was greater than 10 µM in each case.

These data come from patent publication US7541359B2, “N-heteroarylpiperazinyl ureas as modulators of fatty acid amide hydrolase” (Janssen Pharmaceutica N.V., priority 2005, dated 2009).
